From US20240141294A1, “CGMP COMPLIANT PRODUCTION AND EXPANSION OF PLASMACYTOID DENDRITIC CELLS FROM HEMATOPOIETIC STEM AND PROGENITOR CELLS” (AARHUS UNIVERSITET, priority 2021, published 2024) come the findings set out here.

The subject of one experiment is HSPC-pDCs. The experiment is described as follows: TLR7 or TLR9 agonist activation, functional type I IFN (HEK-blue IFN-α/β reporter). It counts as cell-based, human. The protocol: Priming of HSPC-pDCs was performed as previously described. Isolated HSPC-pDCs were primed in the same medium as the differentiation was done in (either RPMI 1640, SFEM II or DC medium). […] For HSPC-pDCs differentiated in DC medium, medium was also supplemented with 50 μg/mL ascorbic acid. Cells were primed for three days before being phenotypically or functionally characterized.
To analyze the capacity of HSPC-pDCs to produce type I IFN, 4×10^4 pDCs were seeded out in 96-well plates in the same medium as the differentiation was done in (either RPMI 1640, SFEM II or DC medium). […] Cells were subsequently stimulated with agonists directed against TLR7 (R837, tlrl-imq, InvivoGen) or TLR9 (CpG-A 2216, tlrl-2216-1, InvivoGen) at a final concentration of 2.5 μg/mL. Twenty hours post stimulation supernatants were harvested and cryopreserved at −20° C. until analysis.
To quantify functional type I IFN, the reporter cell line HEK-blue IFN-α/β was utilized, according to the manufacturer's instructions (InvivoGen). […] Activity of SEAP was assessed using QUANTI-Blue (InvivoGen). Color change was measured at an optical density (OD) of 620 nm using the SpectraMax iD3 platereader (Molecular Devices). […]

For another experiment, the system named is CD34+ HSPCs. As to the kind of experiment: HSPC expansion and HSPC-pDC differentiation culture (cell numbers, viability, HSPC-pDC yield). It counts as cell-based, human. The protocol:
Depending on optimization regiments, freshly or cryo-preserved HSPCs from various sources were differentiated to HSPC-pDCs using different types of medium. For STD and LD/RPMI conditions, HSPCs were cultured in RPMI 1640 (Lonza) supplemented with 10% heat-inactivated fetal calf serum (FCS) (HyClone®), 600 μg/mL L-Glutamine (Sigma), 200 U/mL penicillin and 100 μg/mL streptomycin (Gibco®, Life Technologies). For STD conditions, HSPCs were cultured at a fixed volume during pDC differentiation, versus a fixed density of 0.5-5×10^6 cells/mL for the LD condition. For serum-free (SFEM II) or CGMP serum-free medium (DC medium) conditions, HSPCs were cultured in SFEM II or DC medium at low density (0.5-5×10^6 cells/mL). […] All cytokines are from Peprotech. In addition, the small molecule inhibitor StemRegenin 1 (SR1, […] Technologies) was added at a concentration of 1 μM. For serum-free medium conditions, a concentration of 20 μg/mL streptomycin and 20 U/mL penicillin (Gibco, Life Technologies) was added. Moreover, for the CGMP DC medium condition, 50 μg/mL of ascorbic acid was added. Cells were cultured at 37° C., 95% humidity, and 5% CO2 for up to 21 days depending on optimizations. For the fixed density conditions, medium was replenished every 2-4 day depending on the growth of the HSPCs. Total cell numbers during expansion and differentiation of HSPCs was determined using a TC20 Automated Cell Counter (Bio-Rad). At the end of culture, HSPC-pDCs were enriched using a negative selection kit, according to manufacturer's instructions (EasySep Human Plasmacytoid Dendritic Cell Enrichment kit, […] Technologies).
De-identified umbilical cord blood (UCB) samples were obtained following scheduled caesarean section deliveries of healthy infants at Department of Gynecology and Obstetrics, Skejby University Hospital. Consent was obtained from the mothers. CD34^+ cord blood HSPCs (CB-HSPC) were subsequently purified using EasySep Human Cord Blood CD34 Positive Selection kit II, according to manufacturer's instructions ([…] Technologies). Briefly, a pre-enrichment of CD34+ cells was performed were bi-specific antibodies targeting unwanted cells were used during standard Ficoll-Hypaque (GE Healthcare) density-gradient centrifugation. CD34+ cells were subsequently isolated using anti-CD34 immunomagnetic beads (positive selection). CD34^+ CB HSPCs were either freshly used or cryo-preserved until use.

With `O=C1O[C@H]([C@@H](O)CO)C(O)=C1O` [ascorbic acid], in the experiment with HSPC-pDCs (HSPC-pDCs from AA culture, isolated day 16 and 21, in contrast to DC medium alone), the “type I IFN response to synthetic TLR7 and TLR9 agonists” value is “robust type I IFN response”. Further, the “cHSPC-pDC TLR7 and TLR9-mediated type I IFN production” value with HSPC-pDCs (cHSPC-pDCs from peripheral blood cHSPCs, SFEM II, DC medium or DC medium+AA) is reported as “required”. The “viability of HSPC-pDCs isolated at day 21” value in the experiment with CD34+ HSPCs (AA addition versus 72.8%±3.2% for DC medium alone) is 92.0%. Also, in the experiment on CD34+ HSPCs (AA supplementation of DC medium), the “percentage of HSPC-pDCs of the total population of cells” value is “without affecting”. For the same compound, the “yield of HSPC-pDCs isolated at day 21” value in the experiment on CD34+ HSPCs (DC medium+AA versus 0.5×10^9+0.3×10^9 for DC medium alone) is listed as 1.0×10^9 HSPC-pDCs per 0.1×10^6 CD34+ H. The “expansion during HSPC-pDC differentiation” value in the experiment with CD34+ HSPCs (DC medium+AA versus 13,456 fold (±6,953) for DC medium alone, 1×10^5 HSPCs seeded) is given as 33,554 fold. Also, in the experiment with CD34+ HSPCs (DC medium+AA vs DC medium alone, in particular Day 12+), the “viability of expanding HSPCs during culture” value is reported as “significantly improved”.
